In ChEMBL document CHEMBL1201862, “PubChem BioAssay data set” (2004):
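48-hour exposure; five concentrations; linearly interpolated endpoints. GI50 = concentration required for 50% inhibition of growth.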 Activity calls are given as the source filed them. Cut-off read from the data, not from the text of the source: active = GI50 up to about 1.1 µM and inactive = higher. Where a SMILES comes first, the peptide text is derived from it. The star is where a group is joined. Boc = CC(C)(C)OC(=O)*

Columns and labels:
Experiment in all cases: NCI-60 cell line screen, 48 h
SF-268 = system: SF-268
CCRF-CEM = system: CCRF-CEM
NCI-H23 = system: NCI-H23
SN12C = system: SN12C
XF498 = system: XF498
M19-MEL = system: M19-MEL
NCI-H226 = system: NCI-H226
KM-20L2 = system: KM-20L2
ACHN = system: ACHN
OVCAR-4 = system: OVCAR-4
HCC 2998 = system: HCC 2998
SK-OV-3 = system: SK-OV-3
NCI-H522 = system: NCI-H522
MOLT-4 = system: MOLT-4
K562 = system: K562
SK-MEL-5 = system: SK-MEL-5
A498 = system: A498
HOP-62 = system: HOP-62
HL-60 = system: HL-60
M14 = system: M14
COLO 205 = system: COLO 205
DMS-273 = system: DMS-273
HOP-92 = system: HOP-92
SK-MEL-28 = system: SK-MEL-28
IGROV-1 = system: IGROV-1
TK-10 = system: TK-10
SNB-75 = system: SNB-75
NCI-H460 = system: NCI-H460
HOP-18 = system: HOP-18
LOX IMVI = system: LOX IMVI
RXF 393 = system: RXF 393
SNB-19 = system: SNB-19
HCT-15 = system: HCT-15
RXF 631 = system: RXF 631
UACC-62 = system: UACC-62
U-251 = system: U-251
HCT-116 = system: HCT-116
786-0 = system: 786-0
SK-MEL-2 = system: SK-MEL-2
A549 = system: A549
UO-31 = system: UO-31
Malme-3M = system: Malme-3M
OVCAR-8 = system: OVCAR-8
EKVX = system: EKVX
SF-539 = system: SF-539
DMS-114 = system: DMS-114
SW-620 = system: SW-620
RPMI-8226 = system: RPMI-8226
SR = system: SR
LXFL 529 = system: LXFL 529
CAKI-1 = system: CAKI-1
UACC-257 = system: UACC-257
KM12 = system: KM12
SF-295 = system: SF-295
HT-29 = system: HT-29
SNB-78 = system: SNB-78
OVCAR-5 = system: OVCAR-5
DLD-1 = system: DLD-1
OVCAR-3 = system: OVCAR-3

Measured: GI50

N#CNCC(COCc1ccccc1)c1ccccc1 (stereo not drawn)
inactive: SF-268 > 100 µM | CCRF-CEM > 100 µM | NCI-H23 > 100 µM | SN12C > 100 µM | XF498 47.6 µM | M19-MEL > 100 µM | NCI-H226 98.4 µM | KM-20L2 > 100 µM | ACHN > 100 µM | OVCAR-4 > 100 µM | HCC 2998 > 100 µM | SK-OV-3 > 100 µM | NCI-H522 > 100 µM | MOLT-4 71.1 µM | K562 40.3 µM | SK-MEL-5 49.2 µM | A498 > 100 µM | HOP-62 > 100 µM | HL-60 61.4 µM | M14 > 100 µM | COLO 205 > 100 µM | DMS-273 94.4 µM | HOP-92 > 100 µM | SK-MEL-28 > 100 µM | IGROV-1 > 100 µM | TK-10 > 100 µM | SNB-75 41.9 µM | NCI-H460 > 100 µM | HOP-18 > 100 µM | LOX IMVI > 100 µM | RXF 393 99.1 µM | SNB-19 > 100 µM | RXF 631 > 100 µM | UACC-62 > 100 µM | U-251 > 100 µM | HCT-116 > 100 µM | 786-0 > 100 µM | SK-MEL-2 43.5 µM | A549 > 100 µM | UO-31 46.1 µM | Malme-3M > 100 µM | OVCAR-8 > 100 µM | EKVX > 100 µM | SF-539 > 100 µM | DMS-114 53.2 µM | SW-620 70.5 µM | RPMI-8226 > 100 µM
86.1 µM: HCT-15

C=C1CCC2C(C)(CO)C(O)CCC2(C)C1CC(O)/C(=C/CO)C(=O)O (stereo not drawn)
inactive: SF-268 > 100 µM | CCRF-CEM > 100 µM | SN12C > 100 µM | SR > 100 µM | M19-MEL > 100 µM | KM-20L2 > 100 µM | ACHN > 100 µM | OVCAR-4 > 100 µM | HCC 2998 > 100 µM | SK-OV-3 > 100 µM | NCI-H522 > 100 µM | MOLT-4 > 100 µM | K562 > 100 µM | LXFL 529 > 100 µM | SK-MEL-5 > 100 µM | A498 > 100 µM | HOP-62 > 100 µM | HL-60 > 100 µM | M14 > 100 µM | COLO 205 > 100 µM | CAKI-1 > 100 µM | DMS-273 > 100 µM | HOP-92 > 100 µM | UACC-257 > 100 µM | IGROV-1 > 100 µM | TK-10 > 100 µM | SNB-75 > 100 µM | NCI-H460 > 100 µM | HOP-18 > 100 µM | KM12 > 100 µM | LOX IMVI > 100 µM | RXF 393 > 100 µM | SNB-19 > 100 µM | SF-295 > 100 µM | HT-29 > 100 µM | RXF 631 > 100 µM | SNB-78 > 100 µM | UACC-62 > 100 µM | U-251 > 100 µM | HCT-116 > 100 µM | 786-0 > 100 µM | OVCAR-5 > 100 µM | SK-MEL-2 > 100 µM | A549 > 100 µM | UO-31 > 100 µM | Malme-3M > 100 µM | OVCAR-8 > 100 µM | DLD-1 > 100 µM | SF-539 > 100 µM | DMS-114 > 100 µM | SW-620 > 100 µM | RPMI-8226 > 100 µM
> 100 µM: HCT-15

CCCC1C(=O)C(CC)Cc2c(OC)ccc(OC)c21 (stereo not drawn)
> 100 µM: HCT-15
inactive: SF-268 > 100 µM | CCRF-CEM > 100 µM | SN12C > 100 µM | XF498 > 100 µM | M19-MEL > 100 µM | NCI-H226 > 100 µM | ACHN > 100 µM | OVCAR-4 > 100 µM | HCC 2998 > 100 µM | SK-OV-3 > 100 µM | NCI-H522 > 100 µM | MOLT-4 > 100 µM | K562 > 100 µM | LXFL 529 > 100 µM | SK-MEL-5 > 100 µM | HOP-62 > 100 µM | HL-60 > 100 µM | M14 > 100 µM | COLO 205 > 100 µM | CAKI-1 > 100 µM | DMS-273 > 100 µM | HOP-92 > 100 µM | UACC-257 > 100 µM | OVCAR-3 > 100 µM | SK-MEL-28 > 100 µM | IGROV-1 > 100 µM | TK-10 > 100 µM | SNB-75 > 100 µM | NCI-H460 > 100 µM | KM12 > 100 µM | LOX IMVI > 100 µM | RXF 393 > 100 µM | SNB-19 > 100 µM | SF-295 > 100 µM | HT-29 > 100 µM | RXF 631 > 100 µM | SNB-78 > 100 µM | UACC-62 > 100 µM | U-251 > 100 µM | 786-0 > 100 µM | OVCAR-5 > 100 µM | SK-MEL-2 > 100 µM | A549 > 100 µM | UO-31 > 100 µM | Malme-3M > 100 µM | OVCAR-8 > 100 µM | EKVX > 100 µM | DLD-1 > 100 µM | SF-539 > 100 µM | SW-620 > 100 µM | RPMI-8226 > 100 µM

CSCCC(NC(=O)C(CC(C)C)NC(=O)C1CCCN1C(=O)C(Cc1ccccc1)NC(=O)C(Cc1ccccc1)NC(=O)C(CCC(=O)O)NC(=O)OC(C)(C)C)C(N)=O (stereo not drawn) (Boc-EFFPLM-NH2; configuration not given here)
inactive: SF-268 > 100 µM | CCRF-CEM > 100 µM | NCI-H23 > 100 µM | SN12C > 100 µM | SR > 100 µM | XF498 > 100 µM | M19-MEL > 100 µM | NCI-H226 > 100 µM | OVCAR-4 > 100 µM | HCC 2998 > 100 µM | SK-OV-3 > 100 µM | NCI-H522 > 100 µM | MOLT-4 > 100 µM | K562 > 100 µM | LXFL 529 > 100 µM | A498 > 100 µM | HOP-62 > 100 µM | HL-60 > 100 µM | M14 > 100 µM | COLO 205 > 100 µM | CAKI-1 > 100 µM | DMS-273 > 100 µM | HOP-92 > 100 µM | SK-MEL-28 > 100 µM | IGROV-1 > 100 µM | SNB-75 > 100 µM | NCI-H460 > 100 µM | LOX IMVI > 100 µM | RXF 631 > 100 µM | SNB-78 > 100 µM | UACC-62 > 100 µM | HCT-116 > 100 µM | 786-0 > 100 µM | SK-MEL-2 > 100 µM | UO-31 > 100 µM | Malme-3M > 100 µM | DLD-1 > 100 µM | SF-539 > 100 µM | DMS-114 > 100 µM | RPMI-8226 > 100 µM
